Experimental data published in patent US11566007B2, “Ras inhibitors” (Revolution Medicines, Inc., priority 2019, dated 2023).

Tests used:
[1] = target: NRAS WT (Homo sapiens (Human), UniProt P01111+P62937); assay: Ras-Raf (BRAF RBD) disruption / FRET / MOA assay, NRAS WT; type: biochemical; conditions: read-out: IC50* NRAS WT FRET data
Summary of the method: (§1)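 Compounds were tested as a 10-point 3-fold dilution series from 30 μM final for their ability to drive ternary complex formation between nucleotide-loaded Ras and cyclophilin A, displacing the BRAF RBD. After 3 h at 25° C., anti-His Eu-W1024 (10 nM) and anti-GST allophycocyanin (50 nM) were added for 1.5 h. A TR-FRET ratio decrease versus DMSO gave IC50.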

[2] = target: KRAS G12D (Homo sapiens (Human), UniProt P01116+P62937, G12D); assay: Ras-Raf (BRAF RBD) disruption / FRET / MOA assay, KRAS G12D; type: biochemical; conditions: Ras-Raf disruption/FRET/MOA assay; class symbols; read-out: KRAS G12D FRET data IC50
KRAS G12D, sequence (P01116-2 other isoform, or with tags, fused parts or gaps G12D): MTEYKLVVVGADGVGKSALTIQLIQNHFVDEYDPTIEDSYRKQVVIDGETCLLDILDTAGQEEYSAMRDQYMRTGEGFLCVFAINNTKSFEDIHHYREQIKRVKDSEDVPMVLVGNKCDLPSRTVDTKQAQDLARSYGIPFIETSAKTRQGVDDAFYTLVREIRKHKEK
KRAS G12D, sequence (P62937 whole entry): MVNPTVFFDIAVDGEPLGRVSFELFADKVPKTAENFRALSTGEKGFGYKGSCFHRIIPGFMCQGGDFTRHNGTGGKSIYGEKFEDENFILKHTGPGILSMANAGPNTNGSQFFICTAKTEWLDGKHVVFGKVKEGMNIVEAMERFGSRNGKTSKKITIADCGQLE
Summary of the method: (§2)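 Ternary complex formation (Ras–compound–cyclophilin A) displacing BRAF RBD, monitored by TR-FRET. Three hours at 25° C with compound (top 30 μM final), then 1.5 h with the labelled antibodies. Lower ratio than DMSO indicates disruption; IC50 reported.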

[3] = target: KRAS G12S (Homo sapiens (Human), UniProt P01116+P62937, G12S); assay: Ras-Raf (BRAF RBD) disruption / FRET / MOA assay, KRAS G12S; type: biochemical; conditions: Ras-Raf disruption/FRET/MOA assay; class symbols; read-out: KRAS G12S FRET data IC50
KRAS G12S, sequence (P01116-2 other isoform, or with tags, fused parts or gaps G12S): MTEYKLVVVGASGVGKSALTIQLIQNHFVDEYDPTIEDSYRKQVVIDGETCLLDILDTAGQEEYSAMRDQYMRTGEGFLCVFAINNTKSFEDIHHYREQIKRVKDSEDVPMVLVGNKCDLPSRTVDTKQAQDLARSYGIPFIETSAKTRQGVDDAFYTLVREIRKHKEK
KRAS G12S, sequence (P62937 whole entry): as the sequence (P62937 whole entry) above
Summary of the method: as §2

[4] = target: KRAS Q61H (Homo sapiens (Human), UniProt P01116+P62937, Q61H); assay: Ras-Raf (BRAF RBD) disruption / FRET / MOA assay, KRAS Q61H; type: biochemical; conditions: Ras-Raf disruption/FRET/MOA assay; class symbols; read-out: KRAS Q61H FRET data IC50
KRAS Q61H, sequence (P01116-2 other isoform, or with tags, fused parts or gaps Q61H): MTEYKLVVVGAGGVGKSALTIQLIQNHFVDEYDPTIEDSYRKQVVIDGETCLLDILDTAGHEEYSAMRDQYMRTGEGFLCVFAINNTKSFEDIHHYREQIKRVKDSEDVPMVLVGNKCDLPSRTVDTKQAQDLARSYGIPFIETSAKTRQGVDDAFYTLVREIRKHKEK
KRAS Q61H, sequence (P62937 whole entry): as the sequence (P62937 whole entry) above
Summary of the method: as §1

[5] = target: KRAS WT (Homo sapiens (Human), UniProt P01116+P62937); assay: Ras-Raf (BRAF RBD) disruption / FRET / MOA assay, KRAS WT; type: biochemical; conditions: read-out: IC50* KRAS WT FRET data
KRAS WT, sequence (P01116-2 other isoform, or with tags, fused parts or gaps): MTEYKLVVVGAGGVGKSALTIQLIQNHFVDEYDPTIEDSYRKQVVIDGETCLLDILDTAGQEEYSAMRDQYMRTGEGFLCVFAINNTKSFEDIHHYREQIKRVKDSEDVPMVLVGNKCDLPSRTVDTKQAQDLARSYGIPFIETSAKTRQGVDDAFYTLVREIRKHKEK
KRAS WT, sequence (P62937 whole entry): as the sequence (P62937 whole entry) above
Summary of the method: as §2

[6] = target: NRAS Q61K (Homo sapiens (Human), UniProt P01111+P62937, Q61K); assay: Ras-Raf (BRAF RBD) disruption / FRET / MOA assay, NRAS Q61K; type: biochemical; conditions: NRAS Q61K; Ras-Raf disruption/FRET/MOA assay; read-out: IC50* NRAS Q61K FRET data
NRAS Q61K, sequence (P01111 whole entry Q61K): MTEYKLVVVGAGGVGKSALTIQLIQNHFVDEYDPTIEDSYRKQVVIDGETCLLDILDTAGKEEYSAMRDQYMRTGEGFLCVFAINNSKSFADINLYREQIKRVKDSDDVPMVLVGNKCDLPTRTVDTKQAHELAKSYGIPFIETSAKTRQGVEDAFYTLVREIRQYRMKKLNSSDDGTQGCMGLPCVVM
NRAS Q61K, sequence (P62937 whole entry): as the sequence (P62937 whole entry) above
Summary of the method: as §1

[7] = target: NRAS G12C (Homo sapiens (Human), UniProt P01111+P62937, G12C); assay: Ras-Raf (BRAF RBD) disruption / FRET / MOA assay, NRAS G12C; type: biochemical; conditions: read-out: IC50* NRAS G12C FRET data
NRAS G12C, sequence (P01111 whole entry G12C): as the sequence (P01111 whole entry Q61K) above, with G12C, K61Q counted along it
NRAS G12C, sequence (P62937 whole entry): as the sequence (P62937 whole entry) above
Summary of the method: as §2

[8] = target: KRAS G12V (Homo sapiens (Human), UniProt P01116+P62937, G12V); assay: Ras-Raf (BRAF RBD) disruption / FRET / MOA assay, KRAS G12V; type: biochemical; conditions: read-out: IC50* KRAS G12V FRET data
KRAS G12V, sequence (P01116-2 other isoform, or with tags, fused parts or gaps G12V): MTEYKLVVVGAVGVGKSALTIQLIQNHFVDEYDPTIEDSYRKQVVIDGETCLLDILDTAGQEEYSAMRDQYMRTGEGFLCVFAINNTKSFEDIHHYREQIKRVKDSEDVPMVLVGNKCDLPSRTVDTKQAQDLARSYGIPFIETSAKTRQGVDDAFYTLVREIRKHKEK
KRAS G12V, sequence (P62937 whole entry): as the sequence (P62937 whole entry) above
Summary of the method: as §2

[9] = target: KRAS G13D (Homo sapiens (Human), UniProt P01116+P62937, G13D); assay: Ras-Raf (BRAF RBD) disruption / FRET / MOA assay, KRAS G13D; type: biochemical; conditions: read-out: IC50* KRAS G13D FRET data
KRAS G13D, sequence (P01116-2 other isoform, or with tags, fused parts or gaps G13D): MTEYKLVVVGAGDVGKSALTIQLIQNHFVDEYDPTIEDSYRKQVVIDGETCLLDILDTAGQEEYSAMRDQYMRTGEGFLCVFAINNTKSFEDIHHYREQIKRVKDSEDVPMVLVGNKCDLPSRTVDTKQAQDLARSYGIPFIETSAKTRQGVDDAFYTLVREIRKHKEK
KRAS G13D, sequence (P62937 whole entry): as the sequence (P62937 whole entry) above
Summary of the method: as §2

[10] = target: K-Ras G13C (Homo sapiens (Human), UniProt P01116+P62937, G13C); assay: Ras-Raf (BRAF RBD) disruption / FRET / MOA assay, KRAS G13C; type: biochemical; conditions: KRAS G13C; Ras-Raf disruption/FRET/MOA assay; read-out: IC50* KRAS G13C FRET data
K-Ras G13C, sequence (P01116-2 other isoform, or with tags, fused parts or gaps G13C): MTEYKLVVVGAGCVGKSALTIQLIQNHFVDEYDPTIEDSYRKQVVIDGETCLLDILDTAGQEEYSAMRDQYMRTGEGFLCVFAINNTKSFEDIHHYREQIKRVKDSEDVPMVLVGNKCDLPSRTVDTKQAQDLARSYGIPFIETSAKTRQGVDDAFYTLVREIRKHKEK
K-Ras G13C, sequence (P62937 whole entry): as the sequence (P62937 whole entry) above
Summary of the method: as §2

[11] = target: NRAS Q61R (Homo sapiens (Human), UniProt P01111+P62937, Q61R); assay: Ras-Raf (BRAF RBD) disruption / FRET / MOA assay, NRAS Q61R; type: biochemical; conditions: NRAS Q61R; Ras-Raf disruption/FRET/MOA assay; read-out: IC50* NRAS Q61R FRET data
NRAS Q61R, sequence (P01111 whole entry Q61R): as the sequence (P01111 whole entry Q61K) above, with K61R counted along it
NRAS Q61R, sequence (P62937 whole entry): as the sequence (P62937 whole entry) above
Summary of the method: as §1

[12] = tested on: NCI-H358 (K-Ras G12C); assay: CellTiter-Glo cell viability assay, NCI-H358; type: cell-based, human; conditions: Homo sapiens, NCI-H358, 120 h, NCI-H358, 5-day treatment; class symbols; read-out: Additional H358 Cell Viability assay data (K-Ras G12C, IC50)
Summary of the method: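 Viability measured by CellTiter-Glo luminescence on day 5 following direct addition of compound to plated cells. Values expressed as percent of mean DMSO signal; curves fitted with a four-parameter logistic model.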

NRAS WT, sequence (P01111 whole entry): as the sequence (P01111 whole entry Q61K) above, with K61Q counted along it
NRAS WT, sequence (P62937 whole entry): as the sequence (P62937 whole entry) above

Compound	IC50 [1]	IC50 [2]	IC50 [3]	IC50 [4]	IC50 [5]	IC50 [6]	IC50 [7]	IC50 [8]	IC50 [9]	IC50 [10]	IC50 [11]	IC50 [12]
CCn1c(-c2cccnc2[C@H](C)OC)c2c3cc(ccc31)-c1csc(n1)C[C@H](NC(=O)[C@H](C(C)C)N(C)C(=O)N(C)C1CN(C(=O)/C=C/C3CN(C)C3)C1)C(=O)N1CCC[C@H](N1)C(=O)OCC(C)(C)C2 (atropisomer, axis not shown) [Example A690]	0.1 to 1 µM	1 to 10 µM	0.1 to 1 µM	0.1 to 1 µM	0.1 to 1 µM	0.1 to 1 µM	0.1 to 1 µM	1 to 10 µM	0.1 to 1 µM	0.1 to 1 µM	0.1 to 1 µM	0.1 to 1 µM
C=CC(=O)N1CC2(CCCN2C(=O)N(C)[C@H](C(=O)N[C@H]2Cc3nc(cs3)-c3ccc4c(c3)c(c(-c3cccnc3[C@H](C)OC)n4CC)CC(C)(C)COC(=O)[C@@H]3CCCN(N3)C2=O)C(C)C)C1 (atropisomer, axis not shown) [Example A667]	0.01 to 0.1 µM	0.1 to 1 µM	0.1 to 1 µM	0.01 to 0.1 µM	0.01 to 0.1 µM	0.01 to 0.1 µM	< 0.01 µM	0.1 to 1 µM	0.1 to 1 µM	0.1 to 1 µM	0.01 to 0.1 µM	< 0.01 µM
C=CC(=O)N1CC[C@H](C(=O)N(C)[C@H](C(=O)N[C@H]2CC3=NC=C(O3)c3ccc4c(c3)c(c(-c3cccnc3[C@H](C)OC)n4CC)CC(C)(C)COC(=O)[C@@H]3CCCN(N3)C2=O)C(C)C)C1 (atropisomer, axis not shown) [Example A278]	1 to 10 µM	> 10 µM	1 to 10 µM	1 to 10 µM	1 to 10 µM	1 to 10 µM	0.1 to 1 µM	1 to 10 µM	1 to 10 µM	1 to 10 µM	> 10 µM	0.1 to 1 µM
C=CC(=O)N1CC[C@H](C(=O)N2CCCCC[C@H]2C(=O)N[C@H]2Cc3cccc(c3)-c3ccc4c(c3)c(c(-c3cccnc3[C@H](C)OC)n4CC)CC(C)(C)COC(=O)[C@@H]3CCCN(N3)C2=O)C1 (atropisomer, axis not shown) [Example A496]	1 to 10 µM	> 10 µM	> 10 µM	1 to 10 µM	> 10 µM	1 to 10 µM	1 to 10 µM	> 10 µM	> 10 µM	1 to 10 µM	1 to 10 µM	0.1 to 1 µM
C=CC(=O)N1CCC12CN(C(=O)N(C)[C@H](C(=O)N[C@H]1Cc3nc(cs3)-c3ccc4c(c3)c(c(-c3cccnc3[C@H](C)OC)n4CC)CC(C)(C)COC(=O)[C@@H]3CCCN(N3)C1=O)C(C)C)C2 (atropisomer, axis not shown) [Example A393]	0.1 to 1 µM	1 to 10 µM	0.1 to 1 µM	0.1 to 1 µM	0.1 to 1 µM	0.1 to 1 µM	0.1 to 1 µM	1 to 10 µM	1 to 10 µM	0.1 to 1 µM	0.1 to 1 µM	0.01 to 0.1 µM
CCn1c(-c2cccnc2[C@H](C)OC)c2c3cc(ccc31)-c1cccc(c1)C[C@H](NC(=O)[C@H](C(C)C)N(C)C(=O)[C@H]1CCN(C(=O)C#CC(C)(C)N(C)C)C1)C(=O)N1CCC[C@H](N1)C(=O)OCC(C)(C)C2 (atropisomer, axis not shown) [Example A290]	1 to 10 µM	> 10 µM	1 to 10 µM	1 to 10 µM	1 to 10 µM	1 to 10 µM	< 0.01 µM	1 to 10 µM	1 to 10 µM	1 to 10 µM	1 to 10 µM	< 0.01 µM
CCn1c(-c2cccnc2[C@H](C)OC)c2c3cc(ccc31)-c1cc(CF)cc(c1)C[C@H](NC(=O)[C@H](C(C)C)N(C)C(=O)[C@H]1CCN(C(=O)C#CC(C)(C)N(C)C)C1)C(=O)N1CCC[C@H](N1)C(=O)OCC(C)(C)C2 (atropisomer, axis not shown) [Example A658]	1 to 10 µM	1 to 10 µM	1 to 10 µM	1 to 10 µM	1 to 10 µM	> 10 µM	< 0.01 µM	1 to 10 µM	1 to 10 µM	0.1 to 1 µM	1 to 10 µM	< 0.01 µM
C=CC(=O)N1CC(N(C)C(=O)N(C)[C@H](C(=O)N[C@H]2Cc3nc(cs3)-c3ccc4c(c3)c(c(-c3cccnc3[C@H](C)OC)n4CC(F)(F)F)CC(C)(C)COC(=O)[C@@H]3CCCN(N3)C2=O)C(C)C)C1 (atropisomer, axis not shown) [Example A711]	0.01 to 0.1 µM	0.1 to 1 µM	0.1 to 1 µM	0.01 to 0.1 µM	0.01 to 0.1 µM	0.01 to 0.1 µM	< 0.01 µM	0.1 to 1 µM	0.1 to 1 µM	0.01 to 0.1 µM	0.1 to 1 µM	< 0.01 µM
C=CC(=O)N1CC[C@H]2[C@@H]1CN2C(=O)N(C)[C@H](C(=O)N[C@H]1Cc2nc(cs2)-c2ccc3c(c2)c(c(-c2cccnc2[C@H](C)OC)n3CC)CC(C)(C)COC(=O)[C@@H]2CCCN(N2)C1=O)C(C)C (atropisomer, axis not shown) [Example A547]	0.1 to 1 µM	1 to 10 µM	1 to 10 µM	0.1 to 1 µM	0.1 to 1 µM	0.1 to 1 µM	0.1 to 1 µM	1 to 10 µM	1 to 10 µM	0.1 to 1 µM	1 to 10 µM	0.1 to 1 µM
CO[C@@H](C)c1ncccc1-c1c2c3cc(ccc3n1CC(F)(F)F)-c1cccc(c1)CN(NC(=O)[C@@H](COC1CN(C(=O)C#CC(C)(C)N(C)C)C1)C(C)C)C(=O)N1CCC[C@H](N1)C(=O)OCC(C)(C)C2 (atropisomer, axis not shown) [Example A601]	1 to 10 µM	> 10 µM	1 to 10 µM	1 to 10 µM	1 to 10 µM	1 to 10 µM	< 0.01 µM	1 to 10 µM	1 to 10 µM	0.1 to 1 µM	1 to 10 µM	< 0.01 µM
